Data set [1] deals with rat osteocalcin promoter. As to the kind of experiment: OCN (osteocalcin) promoter assay. In kind it is cell-based. To be noted: RG-15 (ROS 17/2.8) cells. Here is the method:
3. The OCN (Osteocalcin) Promoter Assay
The OCN Promoter Assay is an indicator and marker for osteoporosis. […] Preferred assay results are less than 50 nM.
(3) Materials and Method for The OCN Promoter Assay:
The activation of osteocalcin by VDR ligands was evaluated in a rat osteoblast-like cell line RG-15 (ROS 17/2.8) stably expressing rat osteocalcin promoter fused with luciferase reporter gene. […] Confluent RG-15 cells maintained in DMEM/F-12 medium (3:1) containing 5% FBS, 300 μg/ml G418 and at 37° C. under 5% CO2/95% air atmosphere were trypsinized (0.25% trypsin) and plated into white opaque 96-well cell culture plates (25000 cells/well). After 24 hr, cells (in DMEM/F-12 medium+2% FBS) were treated with various concentrations of compounds, dissolved in DMSO. The final DMSO concentration remained at 0.01% (v/v). After 48 hr treatment, the medium was removed, cells were lysed with 50 μl of lysis buffer (From Luciferase reporter assay system, Roche Diagnostics, Indianapolis, Ind.) and assayed for luciferase activity using the Luciferase Reporter Gene Assay kit from Boehringer Mannheim as per manufacturer's specifications.

Data set [2] concerns female DBF mice. Kind of data set: Mouse hypercalcemia assay. To be noted: oral gavage for 6 days.
Text: The Mouse Hypercalcemia Assay
The Mouse Hypercalcemia Assay is a six day hypercalcemia test for toxicity and selectivity.
(4) Materials and Method for the Mouse Hypercalcemia Assay:
Weanling, virus-antibody-free, five to six weeks old female DBF mice (Harlan, Indianapolis, Ind.) are used for all the studies. Animals are allowed to acclimate to local vivarium conditions for 2 days. […] The animals then are divided into groups with 4-5 mice per group. Different doses of test compounds prepared in 10% Ethanol and 90% sesame oil are administered to mice orally via gavage for 6 days. 1α-25(OH)2D3 0.5 μg/kg/d was also given to one group of mice as the positive control. […] Raw data of group differences is assessed by analysis of variance (ANOVA) using Fisher's protected least significant difference (PLSD) where the significance level was P<0.05.
Data set [3] relates to KERtr cells. As to the kind of experiment: Keratinocyte proliferation assay. In kind it is cell-based. To be noted: Homo sapiens, read-out: Kera. Prolif. IC50. How it is done:
5. The Keratinocyte Proliferation Assay
This Assay is indicative for the treatment of psoriasis.
(5) The Keratinocyte Proliferation Assay:
KERtr cells (Human skin keratinocyte transformed with a retrovirus vector, obtained from ATCC) were plated in 96-well flat-bottomed plates (3000 cells/well) in 100 μl keratinocyte serum free medium supplemented with bovine pituitary extract in the absence of EGF (Life Technologies, Rockville, Md.) and incubated at 37° C. for two days. The cells were treated with various concentrations of VDR ligands (ten-fold serial dilution from 10,000 nM to 0.1 nM in triplicate), dissolved in 100 μl keratinocyte serum free medium supplemented with bovine pituitary extract in the absence of EGF and incubated at 37° C. for 72 hr. […] Potency values (IC50) values were determined as the concentration (nM) of compound that elicited a half-maximal response.

The target of data set [4] is T1, VDR (Homo sapiens, UniProt P11473).
T1 construct: the receptor expression vector pGal4-VDR-LBD (10 ng); expressed in transfected cells; host or cells: Caco-2 cells
T1 sequence (P11473 127-423 limits assumed): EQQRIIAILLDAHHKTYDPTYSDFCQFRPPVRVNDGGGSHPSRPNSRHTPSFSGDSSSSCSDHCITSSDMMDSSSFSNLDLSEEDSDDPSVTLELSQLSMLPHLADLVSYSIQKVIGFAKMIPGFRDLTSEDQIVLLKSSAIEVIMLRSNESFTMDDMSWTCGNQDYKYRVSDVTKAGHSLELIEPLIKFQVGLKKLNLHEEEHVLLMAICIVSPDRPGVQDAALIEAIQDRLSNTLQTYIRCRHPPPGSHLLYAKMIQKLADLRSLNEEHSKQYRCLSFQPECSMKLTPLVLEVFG
As to the kind of experiment: VDR CTF (Caco-2 cell co-transfection) assay. In kind it is cell-based. To be noted: Caco-2 cells, pGal4-VDR-LBD co-transfection, luciferase; several values separated by /. Here is the method:
2. The Caco-2 Cell Co-Transfection Assay:
The Caco-2 cell assay is an indicator for the undesirable condition of hypercalcemia. This co-transfection assay is a surrogate assay for in vivo calcemic activity of VDR ligands. […] Preferred assay results are greater than 1000 nM.
(2) Materials and Method for the Caco-2 Cell Assay:
Caco-2 cells, grown in phenol red free, DMEM (Invitrogen, Carlsbad, Calif.) containing 10% charcoal-stripped FCS (Hyclone, Logan, Utah), were transfected with Fugene 6 reagent (Roche Diagnostics, Indianapolis, Ind.). Cells (5000/well) were plated 18 h before transfection in a 96 well plate. The Cells were transfected with Gal4-responsive reporter pFRLuc (150 ng, Stratagene, La Jolla Calif.) and the receptor expression vector pGal4-VDR-LBD (10 ng), along with Fugene 6 reagent (0.2 μl/well). The DNA-Fugene complex was formed by incubating the mixture for 30 min at room temperature. The cells were transfected in triplicate for 5 h, and treated with various concentrations of VDR ligands (form 0.01 nM to 10,000 nM concentration range) 18 h post-transfection. The luciferase activity was quantified using Steady-Glo reagent kit (Promega, Madison, Wis.) as per manufacturer's specifications.

In data set [5] the test system is IL-10. Kind of data set: IL-10 induction assay. In kind it is cell-based. To be noted: Homo sapiens, PBMC. An excerpt:
6. The IL-10 Induction Assay
This is an in vitro efficacy assay for psoriasis, abscess and adhesion. Psoriasis involves both keratinocytes and immune cells. IL-10 is a unique cytokine because it is anti-inflammatory and immunosuppressive. This assay tells us whether a VDRM is able to function as an agonist in PBMCs ([…]) or not.
(6) Materials and Method for Human IL-10 Induction Assay:
Isolation of Peripheral Blood Mononuclear Cells (PBMCs):
B. Prepare sterile tubes with ficol.
C. Add diluted blood to tubes.
E. Discard the top layer and collect the cells from middle layer.
F. Divide all cells into four tubes and add media.
H. Aspirate off media and resuspend.
J. Centrifuge. at 1200 rpm for 10 minutes.
M. Dissolve PHA in water.
N. Plate TPA/PHA treated PBMCs in well plates.
Sample Collection and Assay:
S. Remove all the cells by centrifugation and assay the supernatant for IL-10 by immunoassay.
1) T. Perform […] using anti-human IL-10 antibody coated beads, as described by the manufacturer (Linco Research Inc., St. Charles, Mo.).

The target in data set [6] is T2, RXR-VDR heterodimer (Homo sapiens, UniProt P11473).
T2 construct: Add the Gal4-RXR-DEF and VP16-VDR-LBD; expressed in transfected cells; host or cells: SaOS-2 cells
T2 sequence (P11473 127-423 limits assumed): T1 sequence (P11473 127-423 limits assumed)
T2 sequence (P19793 201-462 partner limits assumed): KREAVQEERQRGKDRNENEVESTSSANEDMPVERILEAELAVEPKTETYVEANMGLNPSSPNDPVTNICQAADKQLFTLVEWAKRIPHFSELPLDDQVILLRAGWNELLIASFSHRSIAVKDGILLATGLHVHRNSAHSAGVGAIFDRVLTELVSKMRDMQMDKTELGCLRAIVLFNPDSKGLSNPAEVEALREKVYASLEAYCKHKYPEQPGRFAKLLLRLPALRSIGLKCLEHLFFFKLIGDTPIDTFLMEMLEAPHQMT
Kind of data set: RXR-VDR heterodimerization assay (SaOS-2 cells). In kind it is cell-based. To be noted: Gal4-RXR-DEF/VP16-VDR-LBD luciferase reporter, several values in a cell separated by /. Here is the method:
1. The RXR-VDR Heterodimer Assay:
This assay provides the VDR activity of a test compound.
(1) Materials and Method for RXR-VDR Heterodimerization Assay:
Luciferase Assay Reagent: • Use Steady-Glo Luciferase Reagent from Promega (Cat #E2550) Consists of: a. E2533 Assay Substrate, lyopholized product and b. E2543 Assay Buffer. • Thaw at room temperature • Store Cell Harvesting Aspirate media from culture flask, rinse cells with HBSS and aspirate. Add trypsin and incubate. When cells appear detached, resuspend cells in growth media. Transfer into a new flask with fresh growth media for passaging the cells. Plate well plates and two extra plates A. Cell Count Mix the cell suspension using pipette Use Hematocytometer to count the cells Load cell suspension onto the hemocytometer chamber Count cells. […] In sterile flask add cell suspension to plating media. Mix. Add cells/well. Place the cells in the incubator. Cells should be about 75% confluent prior to transfection. DAY 2: Transfection Step 1: DNA and Media Add plain DMEM media to tubes for mixing the DNA Add the Reporter gene pFR-LUC Add the Gal4-RXR-DEF and VP16-VDR-LBD Step 2: FuGENE and Media Prepare plain DMEM media in a ubes for mixing FuGENE Add FuGENE 6 Transfection Reagent Incubate Step 3: FuGENE, DNA and Media Complex Add FuGENE Media complex from step 2 to DNA Media complex from step 1 Incubate Step 4: FuGENE, DNA and Media Complex to-well plate Add FuGENE-DNA-Media complex from step 3 to each plate Incubate. […] Day 4: Luciferase Assay Read the plates after drug treatment Remove part of media from all the wells and leave remainder Add Steady-Glo Luciferase Reagent mixture/wells Incubate Count each well using a Luminescence counter, Top Count NXT by Packard
Set a delay between plates to reduce the background.

Where [7] appears, read: Rattus norvegicus, 48 h, 48 hr treatment, luciferase, several values separated by /.
The mark [8] stands for this setting: serum ionized calcium 6 hours after last dosing.
Where [9] appears, read: 72 h, BrdU incorporation, several values separated by /.
Setting [10] is: Rattus norvegicus, comparison compounds.
Where [11] appears, read: 48 hr treatment, luciferase, several values separated by /.
[12] abbreviates: TPA/PHA stimulated human PBMCs, IL-10 in supernatant by immunoassay, several values separated by /.

SMILES strings stand for the structures. Where two headings read alike, the source gives them in different places.

The source of these data is patent publication US7579488B2 (Eli Lilly and Company, priority 2003, dated 2009).

The EC50 is the concentration giving half of the maximal effect. Broadly, the IC50 is the concentration needed to halve the response being measured.

As to `CCC(CC)(c1ccc(OCC(=O)C(C)(C)C)c(C)c1)c1cc(C)c2oc(C(=O)NCC(=O)O)cc2c1` [Ex 28, [(5-{1-[4-(3,3-dimethyl-2-oxo-butoxy)-3-methyl-phenyl]-1-ethyl-propyl}-7-methyl-benzofuran-2-carbonyl)-amino]-acetic acid], the 50% effective concentration (EC50) in data set [1] (setting [7]) worked out at 4 nM. Moreover, the “Mouse Hypercal” value in data set [2] (setting [8]) is above 1000 µg/kg/day. Moreover, the concentration for half-maximal inhibition (IC50) in data set [3] (setting [9]) is 11 nM.
For `CCC(CC)(c1ccc(OCC(=O)C(C)(C)C)c(C)c1)c1ccc(OCC(=O)C(C)(C)C)c(C)c1` [DD, reference compound], the EC50 in data set [1] (setting [10]) turned out to be 31.1 nM. For the same molecule, the “Mouse Hypercal” value in data set [2] (comparison compounds) is 1000 µg/kg/day. Moreover, the IC50 in data set [3] (comparison compounds) is 1060 nM.
For the molecule `CCC(CC)(c1ccc(OCC(=O)C(C)(C)C)c(C)c1)c1ccc(OC[C@H](O)C(C)(C)C)c(C)c1` [EE, reference compound], the 50% effective concentration (EC50) in data set [1] (setting [10]) came to 341 nM. The “Mouse Hypercal” value in data set [2] (comparison compounds) was 1000 µg/kg/day.
Consider `CCC(CC)(c1ccc(OCC(O)C(C)(C)C)c(C)c1)c1cc2ccc(C(=O)O)cc2o1` (stereo not shown) [Ex 19, 2-{1-Ethyl-1-[4-(2-hydroxy-3,3-dimethyl-butoxy)-3-methyl-phenyl]-propyl}-benzofuran-6-carboxylic acid], for which the results for the half-maximal effective concentration (EC50) in data set [1] (setting [11]), in data set [1] (setting [7]) and in data set [4] were 0.9 nM, 1.4 nM and 620 nM, respectively. Besides, the IC50 in data set [3] (setting [9]) worked out at 8 nM; in data set [5] (setting [12]) it was 34 nM.
Consider `C=C1/C(=C\C=C2/CCC[C@]3(C)[C@@H]([C@H](C)/C=C/[C@@H](O)C4CC4)CC[C@@H]23)C[C@@H](O)C[C@@H]1O` [FF, calcipotriol, reference compound], for which the concentration for a half-maximal effect (EC50) in data set [1] (setting [10]) worked out at 0.28 nM. For the same molecule, the IC50 in data set [3] (comparison compounds) was found to be 103 nM; in data set [5] (comparison compounds, human PBMCs), 0.5 nM.
Consider `CCC(CC)(c1ccc(OCC(=O)C(C)(C)C)c(C)c1)c1ccc2oc(C(=O)O)c(C)c2c1` [Ex 34, 5-{1-[4-(3,3-Dimethyl-2-oxo-butoxy)-3-methyl-phenyl]-1-ethyl-propyl}-3-methyl-benzofuran-2-carboxylic acid], for which the EC50 in data set [1] (setting [11]) was determined as 21 nM; in data set [1] (setting [7]), 13 nM; in data set [4] it was 896 nM. In data set [2] (setting [8]), the “Mouse Hypercal” value was above 3000 µg/kg/day.
As to `CCC(CC)(c1ccc(OCC(=O)C(C)(C)C)c(C)c1)c1cc2cc(C(=O)O)ccc2o1` [Ex. 2], the EC50 in data set [6] turned out to be 75 nM; in data set [1] (setting [7]), 3 nM; in data set [4], 677 nM. In addition, the “Mouse Hypercal” value in data set [2] (setting [8]) is above 1000 µg/kg/day. In addition, the IC50 in data set [3] (setting [9]) came to 12 nM.
As to `CCC(CC)(c1ccc(OCC(=O)C(C)(C)C)c(C)c1)c1cc2ccc(C(=O)O)cc2o1` [Ex 18, 2-{1-[4-(3,3-dimethyl-2-oxo-butoxy)-3-methyl-phenyl]-1-ethyl-propyl}-benzofuran-6-carboxylic acid], the concentration for a half-maximal effect (EC50) was found to be 2 nM in data set [1] (setting [7]) and 472 nM in data set [4]. The “Mouse Hypercal” value in data set [2] (setting [8]) is above 300 µg/kg/day. For the same molecule, in data set [3] (setting [9]), the IC50 was determined as 25 nM.
As to `CCC(CC)(c1ccc(OCC(O)C(C)(C)C)c(C)c1)c1ccc2oc(C(=O)NCC(=O)O)c(C)c2c1` (stereo not shown) [Ex 39, [(5-{1-ethyl-1-[4-(2-hydroxy-3,3-dimethyl-butoxy)-3-methyl-phenyl]-propyl}-3-methyl-benzofuran-2-carbonyl)-amino]-acetic acid], the half-maximal effective concentration (EC50) in data set [6] came to 138 nM; in data set [1] (setting [7]), 0.4 nM; in data set [4], 419 nM. Besides, the IC50 in data set [3] (setting [9]) amounted to 19 nM.
As for `CCC(CC)(c1ccc(OCC(=O)C(C)(C)C)c(C(C)C)c1)c1cc2cc(C(=O)O)ccc2o1` [Ex 17], in data set [4], the 50% effective concentration (EC50) was 589 nM. In addition, the IC50 in data set [3] (setting [9]) came out at 13 nM; in data set [5] (setting [12]), 95 nM.
Take `CCC(CC)(c1ccc(OCC(=O)C(C)(C)C)c(C)c1)c1ccc2oc(C(=O)NCC(=O)O)c(C)c2c1` [Ex 38, [(5-{1-[4-(3,3-dimethyl-2-oxo-butoxy)-3-methyl-phenyl]-1-ethyl-propyl}-3-methyl-benzofuran-2-carbonyl)-amino]-acetic acid]: the 50% effective concentration (EC50) in data set [1] (setting [7]) amounted to 0.5 nM; in data set [4], 314 nM. In addition, the “Mouse Hypercal” value in data set [2] (setting [8]) was above 30 µg/kg/day. The IC50 in data set [3] (setting [9]) came to 22 nM.
